Assay results from paper PMC5675747 (The Journal of steroid biochemistry and molecular biology, 2017).

Assays:
[1] = target: T1, zfSult3st4 (Danio rerio, UniProt A0A8M1P203); experiment: […]PAPS sulfation assay, TLC and scintillation counting; type: biochemical; conditions: 14 μM PAPS, 50 mM Mops pH 7.0, 1 mM DTT, 28 °C; substrate inhibition constant
T1 sequence (A0A8M1P203 1-299): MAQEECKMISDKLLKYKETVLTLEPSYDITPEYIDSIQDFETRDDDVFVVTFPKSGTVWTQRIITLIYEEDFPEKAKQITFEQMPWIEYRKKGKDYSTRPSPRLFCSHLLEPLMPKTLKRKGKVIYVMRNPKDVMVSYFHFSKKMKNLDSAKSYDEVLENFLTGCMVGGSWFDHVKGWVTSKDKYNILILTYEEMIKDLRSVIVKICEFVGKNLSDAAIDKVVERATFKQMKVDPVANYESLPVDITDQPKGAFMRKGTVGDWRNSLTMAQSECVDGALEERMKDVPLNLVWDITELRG

[2] = target: T2, hSULT2A1 (Homo sapiens, UniProt Q06520); experiment: as above; type: biochemical; conditions: 14 μM PAPS, 50 mM Mops pH 7.0, 1 mM DTT, 37 °C; substrate inhibition constant
T2 sequence (Q06520 1-285): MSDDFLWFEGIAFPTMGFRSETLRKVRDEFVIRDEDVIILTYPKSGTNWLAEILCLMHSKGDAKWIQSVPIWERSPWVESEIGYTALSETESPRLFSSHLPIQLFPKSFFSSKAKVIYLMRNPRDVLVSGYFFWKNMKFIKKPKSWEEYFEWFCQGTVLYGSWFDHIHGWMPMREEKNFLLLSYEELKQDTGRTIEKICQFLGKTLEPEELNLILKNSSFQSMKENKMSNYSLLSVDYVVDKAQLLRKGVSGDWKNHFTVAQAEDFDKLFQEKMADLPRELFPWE

[3] = target: T3, zfSult2st3 (Danio rerio, UniProt A0ACM8QCA3); experiment: as above; type: biochemical; conditions: 14 μM PAPS, 50 mM Mops pH 7.0, 1 mM DTT, 28 °C; substrate inhibition constant
T3 sequence (A0ACM8QCA3 1-288): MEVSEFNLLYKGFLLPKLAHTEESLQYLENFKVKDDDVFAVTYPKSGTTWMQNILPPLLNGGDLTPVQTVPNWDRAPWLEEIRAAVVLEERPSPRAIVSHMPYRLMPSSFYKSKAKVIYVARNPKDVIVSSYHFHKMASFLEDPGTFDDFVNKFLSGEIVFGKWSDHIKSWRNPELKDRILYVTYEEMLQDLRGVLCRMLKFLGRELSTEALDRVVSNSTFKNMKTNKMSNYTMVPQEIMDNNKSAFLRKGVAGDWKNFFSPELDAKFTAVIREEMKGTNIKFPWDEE

[4] = target: T4, zfSult2st2 (Danio rerio, UniProt A0EXC5); experiment: as above; type: biochemical; conditions: 14 μM PAPS, 50 mM Mops pH 7.0, 1 mM DTT, 28 °C; substrate inhibition constant
T4 sequence (A0EXC5 1-287): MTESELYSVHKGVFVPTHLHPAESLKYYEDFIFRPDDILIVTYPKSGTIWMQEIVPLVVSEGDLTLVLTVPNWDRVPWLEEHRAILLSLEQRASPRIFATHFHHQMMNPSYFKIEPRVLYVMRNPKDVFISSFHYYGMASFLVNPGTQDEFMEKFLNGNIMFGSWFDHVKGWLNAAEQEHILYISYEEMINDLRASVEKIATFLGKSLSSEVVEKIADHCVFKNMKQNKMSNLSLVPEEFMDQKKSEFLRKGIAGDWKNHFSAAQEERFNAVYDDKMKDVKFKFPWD

[5] = substrate: C[C@H](CCCC(CO)CO)[C@H]1CC[C@H]2[C@@H]3[C@H](O)C[C@@H]4C[C@H](O)CC[C@]4(C)[C@H]3C[C@H](O)[C@]12C; experiment: purified protein; type: biochemical, Homo sapiens; conditions: 14 μM PAPS, 50 mM Mops pH 7.0, 1 mM DTT, 37 °C
[6] = substrate: C[C@H](CCCC(CO)CO)[C@H]1CC[C@H]2[C@@H]3[C@H](O)C[C@@H]4C[C@H](O)CC[C@]4(C)[C@H]3C[C@H](O)[C@]12C; experiment: purified protein; type: biochemical, Danio rerio; conditions: 14 μM PAPS, 50 mM Mops pH 7.0, 1 mM DTT, 28 °C

C[C@H](CCCC(CO)CO)[C@H]1CC[C@H]2[C@@H]3[C@H](O)C[C@H]4C[C@H](O)CC[C@]4(C)[C@H]3C[C@H](O)[C@]12C [5α-cyprinol, 3α,7α,12α,26,27-pentahydroxy-5α-cholestane]
Ki [1]: 164.9 ± 22.2 µM | Ki [2]: 210.8 ± 19.9 µM | Ki [3]: 373.9 ± 38.0 µM | Ki [4]: 27.43 ± 11.16 µM

C[C@H](CCCC(CO)CO)[C@H]1CC[C@H]2[C@@H]3[C@H](O)C[C@@H]4C[C@H](O)CC[C@]4(C)[C@H]3C[C@H](O)[C@]12C [5β-cyprinol]
Ki [3]: 39.78 ± 6.70 µM | Ki [4]: 58.15 ± 5.74 µM

B1: hSULT2A1 (Homo sapiens) (protein)
chain: T2 sequence (Q06520 1-285)
Km [5]: 221.3 ± 23.1 µM | Vmax [5]: 0.00224 µmol/min/mg

B2: zfSult3st4 (Danio rerio) (protein)
chain: T1 sequence (A0A8M1P203 1-299)
Km [6]: 98.9 ± 2.89 µM | Vmax [6]: 0.00397 µmol/min/mg
